One block for each compound: values may come before it.
Molecular target: T1, IRAK4 (Homo sapiens, UniProt Q9NWZ3)
T1 sequence (Q9NWZ3 1-460): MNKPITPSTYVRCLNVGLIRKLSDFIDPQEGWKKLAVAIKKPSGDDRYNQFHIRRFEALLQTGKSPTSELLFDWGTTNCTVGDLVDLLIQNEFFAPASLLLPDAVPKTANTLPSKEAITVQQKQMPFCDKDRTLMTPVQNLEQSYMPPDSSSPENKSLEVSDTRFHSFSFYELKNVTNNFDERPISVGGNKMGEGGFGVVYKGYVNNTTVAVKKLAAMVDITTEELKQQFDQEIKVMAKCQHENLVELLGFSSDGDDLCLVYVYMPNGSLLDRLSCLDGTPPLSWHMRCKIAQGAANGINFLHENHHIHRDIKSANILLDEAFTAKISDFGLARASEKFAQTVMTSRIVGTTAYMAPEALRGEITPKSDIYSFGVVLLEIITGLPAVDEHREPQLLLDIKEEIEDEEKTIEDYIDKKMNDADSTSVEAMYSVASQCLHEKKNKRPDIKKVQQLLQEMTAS
Assay: THP-1 degradation assay (western blot, % IRAK4 degraded after 24 hours)
Format: cell-based
Set-up: endogenous in cells
Conditions: THP-1 cells
Experimental: Compounds were reconstituted in DMSO to make stock solutions at concentration of 60 mM. THP-1 and OCI-LY10 cells were maintained in RPMI-1640 medium containing 10% FBS, 0.5 μM 2-ME or 20% FBS, 55 μM 2-ME, and 1% L-Glutamine respectively.
Cells were seeded into 6-well plates with 5e6 cells per well. 200 μL of diluted compounds were added to cells to the final concentration of 0.003-10 μM. After 4 or 24 hour-incubation at 37° C., cells were collected into 2 mL Eppendorf tubes and centrifuged at 1,000 rpm for 5 min. The cell pellets were washed with 1×DPBS once and resuspended in 60 μL lysis buffer. The cells were lysed on ice for 10 min, then centrifuged at 14,000 rpm for 10 min at 4° C. and the supernatants were collected for western blots. For THP-1 cells, the lysis buffer contained 40 mM pH 7.4 HEPES, 140 mM NaCl, 2.5 mM EDTA, 1% NP-40, 0.1% SDS, and protease inhibitor cocktail (Roche, Cat. No. 05892791001). For OCI-LY10 cells, RIPAbuffer (Thermo Fisher, 89900) with Halt Protease and Phosphatase Inhibitor Cocktail (Thermo Fisher, 78446) was applied.
The protein concentration of cell lysates was quantified with Pierce™ BCA Protein Assay Kit (Pierce, 23227). Albumin standards at different concentrations were prepared, involving 2,000 ug/mL, 1,500 ug/mL, 1,000 ug/mL, 750 ug/mL, 500 ug/mL, 250 ug/mL, 125 ug/mL, and 25 ug/mL. BCA working reagents were prepared by mixing BCA reagent A with reagent B in 50:1 ratio. 200 μL of the BCA working reagents were added to 25 μL of BCA standard or cell lysates in microplate, and mixed thoroughly on a plate shaker for 30 seconds. After incubation at 37° C. for 30 min, the absorbance of samples at 562 nm were measured with EnVision Plate Reader.
Protein lysates were prepared in NuPAGE™ LDS sample buffer and NuPAGE™ sample reducing agent, and incubated at 95° C. for 5 min. For western blots, 20-25 μg of total proteins were resolved in 4-12% Bis-Tris gels (Introgen, WG1403A) or 10% Bis-Tris Midi gels (Invitrogen, WG1202BOX) running with 1×MOPS SDS running buffer (Invitrogen, NP0001) or 1×MES SDS running buffer (Invitrogen, NP0002). The proteins were transferred to low fluorescence PVDF membranes using the Trans-Blot Turbo Transfer System. Membranes were then blocked in Odyssey blocking buffer at RT for 1 h followed by primary incubation at 4° C. overnight. The primary antibodies were IRAK1 rabbit monoclonal antibody (CST, #4504S, 1:500), IRAK3 rabbit polyclonal antibody (CST, #4369, 1:500), IRAK4 rabbit polyclonal antibody (CST, #4363S, 1:1,000), MyD88 rabbit monoclonal antibody (Abcam, Ab133739, 1:2,000), j3-actin mouse monoclonal antibody (Sigma, A5441, 10,000), and Gapdh mouse monoclonal antibody (Millipore, MAB374, 1:5,000). Membranes were washed three times with 1×TBST, and then incubated with IR Dye 800 CW Goat anti-rabbit (Licor, #926-32211) and IR Dye 700 CW Goat anti-mouse (Licor, #926-68070) secondary antibodies in 1:10,000 dilution at RT for 1 h. The western blot images were obtained using Odyssey Imaging System.
THP-1 results at 24 hours. The letter codes indicate the percentage of IRAK4 degraded after 24 hours: A (>50% degradation), B (>20-50% degradation) and C (<20% degradation)

Structure (SMILES): COc1cc(Nc2nc(N[C@H]3CCCC[C@H]3N)n3ccnc3c2C(N)=O)cc(OCCOCCOCCOCC(=O)N[C@H](C(=O)N2C[C@H](O)C[C@H]2C(=O)NCc2ccc(-c3scnc3C)cc2)C(C)(C)C)c1 [I-162, 5-[[(1S,2R)-2-aminocyclohexyl]amino]-7-[3-[2-[2-[2-[2-[[(1S)-1-[(2S,4R)-4-hydroxy-2-[[4-(4-methylthiazol-5-yl)phenyl]methylcarbamoyl]pyrrolidine-1-carbonyl]-2,2-dimethyl-propyl]amino]-2-oxo-ethoxy]ethoxy]ethoxy]ethoxy]-5-methoxy-anilino]imidazo[1,2-c]pyrimidine-8-carboxamide]
THP-1 24 h % IRAK4 Degradation: A (>50% degradation)

Structure (SMILES): O=C1CCC(N2C(=O)c3cccc(NCCOCCOCCOCCOCCOCC(F)CNC(=O)c4cnc(Nc5ccc6cnccc6n5)cc4NC4CC4)c3C2=O)C(=O)N1 (stereo not drawn) [I-48]
THP-1 24 h % IRAK4 Degradation: B (>20-50% degradation)

Structure (SMILES): O=C(CN1CCC(NC(=O)c2cnc(Nc3ccc4cnccc4n3)cc2NC2CC2)CC1)NCCOCCOCCNc1cccc2c1C(=O)N(C1CCC(=O)NC1=O)C2=O (stereo not drawn) [I-19, 6-((1,6-naphthyridin-2-yl)amino)-4-(cyclopropylamino)-N-(1-(2-((2-(2-(2-((2-(2,6-dioxopiperidin-3-yl)-1,3-dioxoisoindolin-4-yl)amino)ethoxy)ethoxy)ethyl)amino)-2-oxoethyl)piperidin-4-yl)nicotinamide]
THP-1 24 h % IRAK4 Degradation: C (<20% degradation)

Structure (SMILES): Cc1ncsc1-c1ccc(CNC(=O)[C@@H]2C[C@@H](O)CN2C(=O)C(NC(=O)COCCOCCOCCOCCNC(=O)[C@H]2CC[C@H](NC(=O)c3cnc(Nc4ccc5cnccc5n4)cc3NC3CC3)CC2)C(C)(C)C)cc1 (stereo partly drawn) [I-13]
THP-1 24 h % IRAK4 Degradation: C (<20% degradation)

Structure (SMILES): O=C1CCC(N2C(=O)c3cccc(NCCOCCOCCOCCOCCOCCOCC(F)CNC(=O)c4cnc(Nc5ccc6cnccc6n5)cc4NC4CC4)c3C2=O)C(=O)N1 (stereo not drawn) [I-51]
THP-1 24 h % IRAK4 Degradation: C (<20% degradation)

Structure (SMILES): O=C1CCC(N2C(=O)c3cccc(NCCOCCOCCOCC(=O)N4CCC(NC(=O)c5cnc(Nc6ccc7cnccc7n6)cc5NC5CC5)CC4)c3C2=O)C(=O)N1 (stereo not drawn) [I-43, 6-((1,6-naphthyridin-2-yl)amino)-4-(cyclopropylamino)-N-(1-(2-(2-(2-(2-((2-(2,6-dioxopiperidin-3-yl)-1,3-dioxoisoindolin-4-yl)amino)ethoxy)ethoxy)ethoxy)acetyl)piperidin-4-yl)nicotinamide]
THP-1 24 h % IRAK4 Degradation: C (<20% degradation)

Structure (SMILES): O=C1CCC(N2C(=O)c3cccc(NCCOCCOCCOCCOCCOCC(F)CNC(=O)c4cnc(Nc5ccc6ncsc6c5)cc4NC4CC4)c3C2=O)C(=O)N1 (stereo not drawn) [I-52]
THP-1 24 h % IRAK4 Degradation: C (<20% degradation)

Structure (SMILES): O=C(COc1cccc2c1C(=O)N(C1CCC(=O)NC1=O)C2=O)NCCCCCNC(=O)[C@H]1CC[C@H](NC(=O)c2cnc(Nc3ccc4cnccc4n3)cc2NC2CC2)CC1 (stereo partly drawn) [I-4]
THP-1 24 h % IRAK4 Degradation: A (>50% degradation)

Structure (SMILES): O=C(COc1cccc2c1C(=O)N(C1CCC(=O)NC1=O)C2=O)NCCOCCOCC(F)CNC(=O)c1cnc(Nc2ccc3cnccc3n2)cc1NC1CC1 (stereo not drawn) [I-99]
THP-1 24 h % IRAK4 Degradation: C (<20% degradation)

Structure (SMILES): CN(CCOCCOCCNc1cccc2c1C(=O)N(C1CCC(=O)NC1=O)C2=O)C(=O)[C@H]1CC[C@H](NC(=O)c2cnc(Nc3ccc4cnccc4n3)cc2NC2CC2)CC1 (stereo partly drawn) [I-40, 6-((1,6-naphthyridin-2-yl)amino)-4-(cyclopropylamino)-N-((1R,4R)-4-((2-(2-(2-((2-(2,6-dioxopiperidin-3-yl)-1,3-dioxoisoindolin-4-yl)amino)ethoxy)ethoxy)ethyl)(methyl)carbamoyl)cyclohexyl)nicotinamide]
THP-1 24 h % IRAK4 Degradation: C (<20% degradation)

Structure (SMILES): O=C(COc1cccc2c1C(=O)N(C1CCC(=O)NC1=O)C2=O)NCCCOCCCOCC(F)CNC(=O)c1cnc(Nc2ccc3cnccc3n2)cc1NC1CC1 (stereo not drawn) [I-100]
THP-1 24 h % IRAK4 Degradation: B (>20-50% degradation)

Structure (SMILES): O=C1CCC(N2C(=O)c3cccc(NCCOCCOCCOCCOCC(F)CNC(=O)c4cnc(Nc5ccc6cnccc6n5)cc4NC4CC4)c3C2=O)C(=O)N1 (stereo not drawn) [I-50]
THP-1 24 h % IRAK4 Degradation: B (>20-50% degradation)

Second part, the compound after the results:

THP-1 24 h % IRAK4 Degradation: C (<20% degradation)
Structure (SMILES): O=C1CCC(N2C(=O)c3cccc(NCCOCCOCCOCCOCCNC(=O)[C@H]4CC[C@H](NC(=O)c5cnc(Nc6ccc7cnccc7n6)cc5NC5CC5)CC4)c3C2=O)C(=O)N1 (stereo partly drawn) [I-11]

THP-1 24 h % IRAK4 Degradation: C (<20% degradation)
Structure (SMILES): Cc1ncsc1-c1ccc(CNC(=O)[C@@H]2C[C@@H](O)CN2C(=O)[C@@H](NC(=O)COCCOCCOCCOCCNC(=O)Cn2ccc3c(Nc4nc(N[C@@H]5CCCC[C@@H]5N)cc5[nH]cnc(=O)c45)cccc32)C(C)(C)C)cc1 [I-195, (2S,4R)-1-[(2S)-2-[2-[2-[2-[2-[2-[[2-[4-[[7-[[(1R,2S)-2-Aminocyclohexylamino]-4-oxo-3H-pyrido[4,3-d]pyrimidin-5-yl]amino]indol-1-yl]acetyl]amino]ethoxy]ethoxy]ethoxy]ethoxy]acetyl]amino]-3,3-dimethyl-butanoyl]-4-hydroxy-N-[[4-(4-methylthiazol-5-yl)phenyl]methyl]pyrrolidine-2-carboxamide]

THP-1 24 h % IRAK4 Degradation: B (>20-50% degradation)
Structure (SMILES): COc1cc2c(cc1OCCOCCOCCOCCOCCOCC(=O)N[C@H](C(=O)N1C[C@H](O)C[C@H]1C(=O)NCc1ccc(-c3scnc3C)cc1)C(C)(C)C)ncc1c3ccc(C#N)cc3[nH]c21 [I-203]

THP-1 24 h % IRAK4 Degradation: C (<20% degradation)
Structure (SMILES): COc1cc(Nc2nc(N[C@H]3CCCC[C@H]3N)n3ccnc3c2C(N)=O)cc(OCCOCCOCCOCCOCCOCC(=O)N[C@H](C(=O)N2C[C@H](O)C[C@H]2C(=O)NCc2ccc(-c3scnc3C)cc2)C(C)(C)C)c1 [I-163]

THP-1 24 h % IRAK4 Degradation: C (<20% degradation)
Structure (SMILES): Cc1ncsc1-c1ccc(CNC(=O)[C@@H]2C[C@@H](O)CN2C(=O)[C@H](NC(=O)CCCCCOCCCCCCCNC(=O)[C@H]2CC[C@H](NC(=O)c3cnc(Nc4ccc5cnccc5n4)cc3NC3CC3)CC2)C(C)(C)C)cc1 [I-14]

THP-1 24 h % IRAK4 Degradation: B (>20-50% degradation)
Structure (SMILES): O=C1CCC(N2C(=O)c3cccc(NCCOCCOCCOCC(F)CNC(=O)c4cnc(Nc5ccc6cnccc6n5)cc4NC4CC4)c3C2=O)C(=O)N1 (stereo not drawn) [I-49]

THP-1 24 h % IRAK4 Degradation: B (>20-50% degradation)
Structure (SMILES): Cc1ncsc1-c1ccc(CNC(=O)[C@@H]2C[C@@H](O)CN2C(=O)[C@@H](NC(=O)COCCOCCOCCOCCOCCOCC(F)CNC(=O)c2cnc(Nc3ccc4cnccc4n3)cc2NC2CC2)C(C)(C)C)cc1 (stereo partly drawn) [I-119]

THP-1 24 h % IRAK4 Degradation: B (>20-50% degradation)
Structure (SMILES): O=C(COc1cccc2c1C(=O)N(C1CCC(=O)NC1=O)C2=O)NCCOCCOCCOCCOCCOCC(F)CNC(=O)c1cnc(Nc2ccc3cnccc3n2)cc1NC1CC1 (stereo not drawn) [I-97]

THP-1 24 h % IRAK4 Degradation: C (<20% degradation)
Structure (SMILES): NC(=O)c1nnc(N[C@@H]2CCCC[C@@H]2N)nc1Nc1cccc2c1ccn2CCOCCOCCOCCOCCNc1cccc2c1C(=O)N(C1CCC(=O)NC1=O)C2=O (stereo partly drawn) [I-194, 3-[[(1R,2S)-2-aminocyclohexyl]amino]-5-[[1-[2-[2-[2-[2-[2-[[2-(2,6-dioxo-3-piperidyl)-1,3-dioxo-isoindolin-4-yl]amino]ethoxy]ethoxy]ethoxy]ethoxy]ethyl]indol-4-yl]amino]-1,2,4-triazine-6-carboxamide]
